Measured values reported in US8802597B2, “Herbicidal pyrimidines” (E I du Pont de Nemours and Company, priority 2003, dated 2014).
Where two headings read alike, the source gives them in different places.

Columns and labels:
Assay type in all cases: in vivo
[1] = tested on: common (oilseed) sunflower (Helianthus annuus); assay: Test C pre/postemergence; settings: Preemergence
In short: (§1)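 Visual injury ratings, 0 (no effect) to 100 (complete control), made 12 to 14 days after treatment by comparison with untreated controls. Greenhouse plants received test chemical in a surfactant-containing non-phytotoxic solvent, either preemergence on planted seeds or postemergence at the 1- to 4-leaf stage.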

[2] = tested on: corn (Zea mays); assay: Test C pre/postemergence; settings: for Corn plant response rating (crop injury, 0 = no effect, 100 = complete kill) at 8 g/ha: 8 g ai/ha
In short: as §1

[3] = tested on: chickweed (Stellaria media); assay: Test C postemergence
In short: as §1

[4] = tested on: barnyardgrass (Echinochloa crus-galli); assay: Test E flooded paddy water application; settings: Flood, 21 days, scale 0 to 100 (0 no effect, 100 complete control); for Plant response rating, Barnyardgrass: 16 g ai/ha
In short: (§2)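 Response scored visually on a 0–100 scale (100 = complete control) at 21 days against untreated pots. Treatment was into paddy water 3 cm deep over silt loam, with plants at the 2.0–2.5-leaf stage, grown under 16-h light at 29.5/26.7 °C day/night.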

[5] = tested on: bearded (brdd.) sprangletop (Leptochloa fusca ssp. fascicularis); assay: Test E flooded paddy water application; settings: Flood, 21 days, scale 0 to 100 (0 no effect, 100 complete control); for Plant response rating, Sprangletop, Brdd.: 16 g ai/ha
In short: as §2

[6] = tested on: ducksalad (Heteranthera limosa); assay: Test E flooded paddy water application; settings: Flood, 21 days, scale 0 to 100 (0 no effect, 100 complete control); for Plant response rating, Ducksalad: 16 g ai/ha
In short: as §2

[7] = tested on: early watergrass (Echinochloa oryzoides); assay: Test E flooded paddy water application; settings: Flood, 21 days, scale 0 to 100 (0 no effect, 100 complete control); for Plant response rating, Watergrass, Early: 16 g ai/ha
In short: as §2

[8] = tested on: junglerice (Echinochloa colona); assay: Test E flooded paddy water application; settings: Flood, 21 days, scale 0 to 100 (0 no effect, 100 complete control); for Plant response rating, Junglerice: 16 g ai/ha
In short: as §2

[9] = tested on: purple redstem (Ammannia coccinea); assay: Test E flooded paddy water application; settings: Flood, 21 days, scale 0 to 100 (0 no effect, 100 complete control); for Plant response rating, Redstem: 16 g ai/ha
In short: as §2

[10] = tested on: rice flatsedge (Cyperus iria); assay: Test E flooded paddy water application; settings: Flood, 21 days, scale 0 to 100 (0 no effect, 100 complete control); for Plant response rating, Flatsedge, Rice: 16 g ai/ha
In short: as §2

[11] = tested on: transplanted rice seedlings (Oryza sativa cv. ‘Japonica-M202’); assay: Test E flooded paddy water application; settings: Flood, 21 days, scale 0 to 100 (0 no effect, 100 complete control); for Plant response rating, Rice, Transplanted: 16 g ai/ha
In short: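 Greenhouse pots of Tama silt loam with weeds and rice at 2.0–2.5-leaf stage, flooded to 3 cm; compounds applied directly into paddy water, depth maintained. Visual rating versus untreated controls after 21 days, 0 (no effect) to 100 (complete control); 29.5/26.7 °C, 16-h photoperiod.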

[12] = tested on: water seeded rice seedlings (Oryza sativa cv. ‘Japonica-M202’); assay: Test E flooded paddy water application; settings: Flood, 21 days, scale 0 to 100 (0 no effect, 100 complete control); for Plant response rating, Rice, Water Seeded: 16 g ai/ha
In short: as §2

## Nc1nc(-c2ccc(Br)cc2)nc(C(=O)O)c1Cl [Compound 95, 6-amino-2-(4-bromophenyl)-5-chloro-4-pyrimidinecarboxylic acid]
[1]; Helianthus annuus, pre-emergence, 8 g ai/ha, scale 0 to 100 (0 no effect, 100 complete control), read-out: Plant response rating, Sunflower
  pest or weed control at 8 g/ha: 5%
[1]; Helianthus annuus, pre-emergence, 16 g ai/ha, scale 0 to 100, 0 no effect, 100 complete control, read-out: Plant response rating, Sunflower
  pest or weed control at 16 g/ha: 40%
[1]; Helianthus annuus, pre-emergence, 31 g ai/ha, scale 0 to 100, 0 no effect, 100 complete control, read-out: Plant response rating, Sunflower
  pest or weed control at 31 g/ha: 95%
[1]; Helianthus annuus, pre-emergence, 62 g ai/ha, scale 0 to 100, 0 no effect, 100 complete control, read-out: Plant response rating, Sunflower
  pest or weed control at 62 g/ha: 100%
[2]; Zea mays, post-emergence, Postemergence, scale 0 to 100
  Corn plant response rating (crop injury, 0 = no effect, 100 = complete kill) at 8 g/ha: 20%
[2]; Zea mays, post-emergence, Postemergence, 16 g ai/ha, read-out: Plant response rating (scale of 0 to 100), Corn
  Corn plant response rating (crop injury, 0 = no effect, 100 = complete kill) at 16 g/ha: 20%
[2]; Zea mays, post-emergence, Postemergence, 62 g ai/ha, read-out: Plant response rating (scale of 0 to 100), Corn
  Corn plant response rating (crop injury, 0 = no effect, 100 = complete kill) at 62 g/ha: 35%
[2]; Zea mays, pre-emergence, Preemergence, scale 0 to 100 (0 no effect, 100 complete control)
  Corn plant response rating (crop injury, 0 = no effect, 100 = complete kill) at 8 g/ha: 0%
[2]; Zea mays, pre-emergence, Preemergence, 16 g ai/ha, scale 0 to 100, 0 no effect, 100 complete control, read-out: Plant response rating, Corn
  Corn plant response rating (crop injury, 0 = no effect, 100 = complete kill) at 16 g/ha: 0%
[2]; Zea mays, pre-emergence, Preemergence, 31 g ai/ha, scale 0 to 100, 0 no effect, 100 complete control, read-out: Plant response rating, Corn
  Corn plant response rating (crop injury, 0 = no effect, 100 = complete kill) at 31 g/ha: 0%
[2]; Zea mays, pre-emergence, Preemergence, 62 g ai/ha, scale 0 to 100, 0 no effect, 100 complete control, read-out: Plant response rating, Corn
  Corn plant response rating (crop injury, 0 = no effect, 100 = complete kill) at 62 g/ha: 5%
[3]; Stellaria media, post-emergence, 8 g ai/ha, scale 0 to 100, read-out: Plant response rating, Chickweed
  pest or weed control at 8 g/ha: 95%
[3]; Stellaria media, post-emergence, 62 g ai/ha, read-out: Plant response rating (scale of 0 to 100), Chickweed
  pest or weed control at 62 g/ha: 95%
[4]; 32 g ai/ha
  Barnyardgrass plant response rating: 0
[4]; 64 g ai/ha
  Barnyardgrass plant response rating: 0
[4]; 125 g ai/ha
  Barnyardgrass plant response rating: 0
[4]; 250 g ai/ha
  Barnyardgrass plant response rating: 0
[4]
  Plant response rating, Barnyardgrass: 0
[5]; 32 g ai/ha
  Sprangletop, Brdd. plant response rating: 0
[5]; 64 g ai/ha
  Sprangletop, Brdd. plant response rating: 0
[5]; 125 g ai/ha
  Sprangletop, Brdd. plant response rating: 0
[5]; 250 g ai/ha
  Sprangletop, Brdd. plant response rating: 0
[5]
  Plant response rating, Sprangletop, Brdd.: 0
[6]; 32 g ai/ha
  Ducksalad plant response rating: 100
[6]; 64 g ai/ha
  Ducksalad plant response rating: 100
[6]; 125 g ai/ha
  Ducksalad plant response rating: 100
[6]; 250 g ai/ha
  Ducksalad plant response rating: 100
[6]
  Plant response rating, Ducksalad: 100
[7]; 32 g ai/ha
  Watergrass, Early plant response rating: 0
[7]; 64 g ai/ha
  Watergrass, Early plant response rating: 0
[7]; 125 g ai/ha
  Watergrass, Early plant response rating: 0
[7]; 250 g ai/ha
  Watergrass, Early plant response rating: 0
[7]
  Plant response rating, Watergrass, Early: 0
[8]; 32 g ai/ha
  Junglerice plant response rating: 0
[8]; 64 g ai/ha
  Junglerice plant response rating: 0
[8]; 125 g ai/ha
  Junglerice plant response rating: 0
[8]; 250 g ai/ha
  Junglerice plant response rating: 0
[8]
  Plant response rating, Junglerice: 0
[9]; 64 g ai/ha
  Redstem plant response rating: 30
[9]; 125 g ai/ha
  Redstem plant response rating: 70
[9]; 250 g ai/ha
  Redstem plant response rating: 80
[9]
  Plant response rating, Redstem: 30
[10]; 32 g ai/ha
  Flatsedge, Rice plant response rating: 0
[10]; 64 g ai/ha
  Flatsedge, Rice plant response rating: 0
[10]; 125 g ai/ha
  Flatsedge, Rice plant response rating: 0
[10]; 250 g ai/ha
  Flatsedge, Rice plant response rating: 0
[10]
  Plant response rating, Flatsedge, Rice: 0
[11]; 32 g ai/ha
  Rice, Transplanted plant response rating: 0
[11]; 64 g ai/ha
  Rice, Transplanted plant response rating: 0
[11]; 125 g ai/ha
  Rice, Transplanted plant response rating: 0
[11]; 250 g ai/ha
  Rice, Transplanted plant response rating: 15
[11]
  Plant response rating, Rice, Transplanted: 0
[12]; 32 g ai/ha
  Rice, Water Seeded plant response rating: 0
[12]; 64 g ai/ha
  Rice, Water Seeded plant response rating: 0
[12]; 125 g ai/ha
  Rice, Water Seeded plant response rating: 0
[12]; 250 g ai/ha
  Rice, Water Seeded plant response rating: 15
[12]
  Plant response rating, Rice, Water Seeded: 0

## Nc1nc(-c2ccc(Cl)cc2)nc(C(=O)[O-])c1Cl.[Na+] [Compound 117]
[1]; 16 g ai/ha, scale 0 to 100, 0 no effect, 100 complete control
  Plant response rating, Sunflower: 0
[1]; 31 g ai/ha, scale 0 to 100, 0 no effect, 100 complete control
  Plant response rating, Sunflower: 50
[1]; 62 g ai/ha, scale 0 to 100, 0 no effect, 100 complete control
  Plant response rating, Sunflower: 90
[2]; Postemergence, 16 g ai/ha
  Plant response rating (scale of 0 to 100), Corn: 30
[2]; Postemergence, 31 g ai/ha
  Plant response rating (scale of 0 to 100), Corn: 30
[2]; Preemergence, 16 g ai/ha, scale 0 to 100, 0 no effect, 100 complete control
  Plant response rating, Corn: 0
[2]; Preemergence, 31 g ai/ha, scale 0 to 100, 0 no effect, 100 complete control
  Plant response rating, Corn: 5
[2]; Preemergence, 62 g ai/ha, scale 0 to 100, 0 no effect, 100 complete control
  Plant response rating, Corn: 20
[2]; Preemergence, 125 g ai/ha, scale 0 to 100
  Plant response rating, Corn: 25
[3]; 16 g ai/ha
  Plant response rating (scale of 0 to 100), Chickweed: 30
[3]; 62 g ai/ha
  Plant response rating (scale of 0 to 100), Chickweed: 40
[4]; 32 g ai/ha
  Barnyardgrass plant response rating: 0
[4]; 64 g ai/ha
  Barnyardgrass plant response rating: 0
[4]; 125 g ai/ha
  Barnyardgrass plant response rating: 0
[4]; 250 g ai/ha
  Barnyardgrass plant response rating: 0
[4]
  Plant response rating, Barnyardgrass: 0
[5]; 32 g ai/ha
  Sprangletop, Brdd. plant response rating: 0
[5]; 64 g ai/ha
  Sprangletop, Brdd. plant response rating: 0
[5]; 125 g ai/ha
  Sprangletop, Brdd. plant response rating: 0
[5]; 250 g ai/ha
  Sprangletop, Brdd. plant response rating: 0
[5]
  Plant response rating, Sprangletop, Brdd.: 0
[6]; 32 g ai/ha
  Ducksalad plant response rating: 100
[6]; 64 g ai/ha
  Ducksalad plant response rating: 100
[6]; 125 g ai/ha
  Ducksalad plant response rating: 100
[6]; 250 g ai/ha
  Ducksalad plant response rating: 100
[6]
  Plant response rating, Ducksalad: 100
[7]; 32 g ai/ha
  Watergrass, Early plant response rating: 0
[7]; 64 g ai/ha
  Watergrass, Early plant response rating: 0
[7]; 125 g ai/ha
  Watergrass, Early plant response rating: 0
[7]; 250 g ai/ha
  Watergrass, Early plant response rating: 0
[7]
  Plant response rating, Watergrass, Early: 0
[8]; 32 g ai/ha
  Junglerice plant response rating: 0
[8]; 64 g ai/ha
  Junglerice plant response rating: 0
[8]; 125 g ai/ha
  Junglerice plant response rating: 0
[8]; 250 g ai/ha
  Junglerice plant response rating: 0
[8]
  Plant response rating, Junglerice: 0
[9]; 32 g ai/ha
  Redstem plant response rating: 0
[9]; 64 g ai/ha
  Redstem plant response rating: 0
[9]; 125 g ai/ha
  Redstem plant response rating: 0
[9]; 250 g ai/ha
  Redstem plant response rating: 30
[9]
  Plant response rating, Redstem: 0
[10]; 32 g ai/ha
  Flatsedge, Rice plant response rating: 100
[10]; 64 g ai/ha
  Flatsedge, Rice plant response rating: 100
[10]; 125 g ai/ha
  Flatsedge, Rice plant response rating: 100
[10]; 250 g ai/ha
  Flatsedge, Rice plant response rating: 100
[10]
  Plant response rating, Flatsedge, Rice: 100
[11]; 32 g ai/ha
  Rice, Transplanted plant response rating: 0
[11]; 64 g ai/ha
  Rice, Transplanted plant response rating: 0
[11]; 125 g ai/ha
  Rice, Transplanted plant response rating: 0
[11]; 250 g ai/ha
  Rice, Transplanted plant response rating: 20
[11]
  Plant response rating, Rice, Transplanted: 0
[12]; 32 g ai/ha
  Rice, Water Seeded plant response rating: 0
[12]; 64 g ai/ha
  Rice, Water Seeded plant response rating: 0
[12]; 125 g ai/ha
  Rice, Water Seeded plant response rating: 0
[12]; 250 g ai/ha
  Rice, Water Seeded plant response rating: 0
[12]
  Plant response rating, Rice, Water Seeded: 0
